Reference: publication PMC8890100 (Chemical Science, 2022)

Assays:
[1] = molecular target: T1, PPARγ–LBD (Homo sapiens, UniProt P37231); assay: 2D fluorescence anisotropy; assay type: binding; settings: ligand excess vs no ligand
T1 sequence (P37231 238-503 limits assumed): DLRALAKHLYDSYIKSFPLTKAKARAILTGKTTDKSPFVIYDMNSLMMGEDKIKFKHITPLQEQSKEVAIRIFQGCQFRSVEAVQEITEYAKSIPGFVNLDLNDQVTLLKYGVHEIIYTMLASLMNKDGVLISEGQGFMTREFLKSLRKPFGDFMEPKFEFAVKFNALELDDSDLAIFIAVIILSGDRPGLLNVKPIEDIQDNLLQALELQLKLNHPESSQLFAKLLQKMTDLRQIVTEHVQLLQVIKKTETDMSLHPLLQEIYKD

[2] = molecular target: PPARγ·MED1 (Homo sapiens, UniProt P37231); assay: 2D-ITC of ligand to PPARγ in the presence of MED1 in cell and syringe; assay type: binding; settings: for cooperativity value α: ITC, PPARγ·ligand·MED1 complex; for −TΔΔS: cooperative effect of MED1 on ligand binding

SMILES | EC50 shift (fold enhancement of PPARγ/MED1 EC50) [1] | cooperativity value α [2] | −TΔΔS [2] | ΔH ([2]; ligand binding to PPARγ in the presence of MED1)
CCO[C@@H](Cc1ccc(OCCc2ccc(OS(C)(=O)=O)cc2)cc1)C(=O)O [Tesaglitazar] | 24 fold | 18 | -3.5 kcal/mol | 21.0 kcal/mol
CN(CCOc1ccc(CC2SC(=O)NC2=O)cc1)c1ccccn1 (centres unmarked) [Rosiglitazone] |  | 28 | -2.3 kcal/mol | 
CCCc1nc2c(C)cc(-c3nc4ccccc4n3C)cc2n1Cc1ccc(-c2ccccc2C(=O)O)cc1 [Telmisartan] | smaller EC50 shift |  |  | 
CC[C@@H](Oc1cccc(CN(CCCOc2ccc(OC)cc2)c2nc3ccccc3o2)c1)C(=O)O [Pemafibrate] | smaller EC50 shift |  |  | 
